In patent US7057052B2, “Heterocyclic quinones as pharmaceutical agents” (Duke University, priority 2002, dated 2006):
Read-outs that look alike come from different tables or passages of the source.

Assays:
Format in all cases: biochemical
Cdc25B = target: T1, Cdc25B (Homo sapiens, UniProt P30305); assay: Cdc25B phosphatase inhibition (50 μM screen, 3 pt. and 8 pt. IC-50); conditions: for IC50: Cdc25B; for inhibition at 50 µM: read-out: Percent Inhibition at 50 uM compound, Cdc25 B
T1 sequence (P30305 1-580): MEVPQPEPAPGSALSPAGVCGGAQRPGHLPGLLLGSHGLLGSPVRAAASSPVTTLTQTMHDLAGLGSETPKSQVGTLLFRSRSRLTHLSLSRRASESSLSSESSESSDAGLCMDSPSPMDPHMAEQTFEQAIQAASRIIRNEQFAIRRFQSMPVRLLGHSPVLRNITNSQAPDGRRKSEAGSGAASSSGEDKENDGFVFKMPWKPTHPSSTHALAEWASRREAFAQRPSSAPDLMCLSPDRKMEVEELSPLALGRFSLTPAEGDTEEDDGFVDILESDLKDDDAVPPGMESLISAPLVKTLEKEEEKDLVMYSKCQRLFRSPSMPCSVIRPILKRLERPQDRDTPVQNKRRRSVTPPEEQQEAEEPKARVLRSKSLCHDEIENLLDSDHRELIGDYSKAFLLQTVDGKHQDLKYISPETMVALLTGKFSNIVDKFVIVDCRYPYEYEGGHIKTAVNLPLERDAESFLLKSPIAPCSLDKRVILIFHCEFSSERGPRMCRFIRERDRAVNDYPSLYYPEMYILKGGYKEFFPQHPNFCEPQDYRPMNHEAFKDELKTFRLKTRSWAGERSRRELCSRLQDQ
Description: (§1) Using procedures known to those skilled in the art, the compounds listed in Table 3 were screened against Cdc25A, Cdc25B, and Cdc25C at 50 μM. […] To analyze these effects further, the compounds were then screened against Cdc25B in a 3 pt. IC-50, using 1, 7 and 50 μM. Several of the compounds were also screened with an 8 pt. IC-50 process, using 0.1–10 μM, allowing determination of Hill slopes.

Cdc25A = target: T2, Cdc25A (Homo sapiens, UniProt P30304); assay: Cdc25A phosphatase inhibition screen at 50 μM; conditions: for inhibition at 50 µM: read-out: Percent Inhibition at 50 uM compound, Cdc25 A
T2 sequence (P30304 1-524): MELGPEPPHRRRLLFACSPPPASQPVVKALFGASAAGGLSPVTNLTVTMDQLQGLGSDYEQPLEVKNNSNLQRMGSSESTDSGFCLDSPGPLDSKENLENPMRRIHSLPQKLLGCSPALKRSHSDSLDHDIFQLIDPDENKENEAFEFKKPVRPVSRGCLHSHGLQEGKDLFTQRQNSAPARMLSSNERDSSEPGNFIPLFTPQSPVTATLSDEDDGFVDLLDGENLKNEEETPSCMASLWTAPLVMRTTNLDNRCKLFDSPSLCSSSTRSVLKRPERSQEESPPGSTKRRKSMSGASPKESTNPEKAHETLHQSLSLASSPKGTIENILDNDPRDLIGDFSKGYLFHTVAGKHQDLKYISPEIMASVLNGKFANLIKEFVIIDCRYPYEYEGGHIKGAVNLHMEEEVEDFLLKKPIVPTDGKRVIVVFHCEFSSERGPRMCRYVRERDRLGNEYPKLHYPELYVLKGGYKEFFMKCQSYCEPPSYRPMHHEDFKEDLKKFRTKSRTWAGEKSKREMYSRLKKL
Description: as §1

Cdc25C = target: T3, Cdc25C (Homo sapiens, UniProt P30307); assay: Cdc25C phosphatase inhibition screen at 50 μM; conditions: for inhibition at 50 µM: read-out: Percent Inhibition at 50 uM compound, Cdc25 C
T3 sequence (P30307 1-473): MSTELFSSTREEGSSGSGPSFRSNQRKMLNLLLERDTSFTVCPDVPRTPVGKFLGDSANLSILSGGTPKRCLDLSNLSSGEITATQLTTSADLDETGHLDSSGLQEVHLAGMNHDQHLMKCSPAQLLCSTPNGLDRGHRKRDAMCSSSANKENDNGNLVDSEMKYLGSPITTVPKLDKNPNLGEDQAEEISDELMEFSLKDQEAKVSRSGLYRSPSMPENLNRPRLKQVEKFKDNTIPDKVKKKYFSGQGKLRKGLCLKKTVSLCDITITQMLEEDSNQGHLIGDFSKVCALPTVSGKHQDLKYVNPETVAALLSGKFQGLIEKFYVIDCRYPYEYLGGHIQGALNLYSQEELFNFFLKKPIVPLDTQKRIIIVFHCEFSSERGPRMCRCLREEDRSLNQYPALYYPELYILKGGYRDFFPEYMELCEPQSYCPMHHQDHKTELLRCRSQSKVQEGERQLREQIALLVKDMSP
Description: as §1

[1] = 3 pt. IC-50 using 1, 7 and 50 μM, read-out: IC50 (3 pt)
[2] = 8 pt. IC-50 using 0.1–10 μM, read-out: IC50 (8 pt)

IC50 (Cdc25B; [1])	IC50 (Cdc25B; [2])	inhibition at 50 µM (Cdc25B)	inhibition at 50 µM (Cdc25A)	inhibition at 50 µM (Cdc25C)	SMILES	Percent Inhibition at 50 uM compound, Cdc25 B (Cdc25B; 50 uM compound)	Percent Inhibition at 50 uM compound, Cdc25 A (Cdc25A; 50 uM compound)	Percent Inhibition at 50 uM compound, Cdc25 C (Cdc25C; 50 uM compound)
82.9 µM	–	11%	69%	22%	CC1(c2[nH]c3ccccc3c2C2=C(O)C(=O)C=C(O)C2=O)CCCCC1 [3A, 2,5-dihydroxy-3-[2-(1-methylcyclohexyl)-1H-indol-3-yl]-[1,4]-benzoquinone]	–	–	–
22.2 µM	–	38%	93%	18%	O=C1C=C(O)C(=O)C(c2c(-c3ccccc3)[nH]c3ccccc23)=C1O [3B, 2,5-dihydroxy-3-(2-phenyl-1H-indol-3-yl)-[1,4]-benzoquinone]	–	–	–
40.3 µM	–	0%	40%	21%	C=CC(C)(C)c1[nH]c2ccccc2c1C1=C(O)C(=O)C=C(O)C1=O [3C, 2,5-dihydroxy-3-[2-(1,1-dimethyl-allyl)-1H-indol-3-yl]-[1,4]-benzoquinone]	–	–	–
1.2 µM	15.9 µM	5%	59%	0%	O=C1C=C(O)C(=O)C(c2c[nH]c3cccc(F)c23)=C1O [3D, 2,5-dihydroxy-3-(4-fluoro-1H-indol-3-yl)-[1,4]-benzoquinone]	–	–	–
3 µM	8.4 µM	21%	67%	0%	O=C1C=C(O)C(=O)C(c2c[nH]c3cccc(Cl)c23)=C1O [3E, 2,5-dihydroxy-3-(4-chloro-1H-indol-3-yl)-[1,4]-benzoquinone]	–	–	–
3.1 µM	> 2 µM	6%	0%	54%	O=C1C=C(O)C(=O)C(c2c[nH]c3cccc(Br)c23)=C1O [3F, 2,5-dihydroxy-3-(4-bromo-1H-indol-3-yl)-[1,4]-benzoquinone]	–	–	–
7.2 µM	–	21%	77%	19%	COc1cccc2[nH]cc(C3=C(O)C(=O)C=C(O)C3=O)c12 [3G, 2,5-dihydroxy-3-(4-methoxy-1H-indol-3-yl)-[1,4]-benzoquinone]	–	–	–
4.6 µM	–	0%	87%	2%	O=C1C=C(O)C(=O)C(c2c[nH]c3cccc(OCc4ccccc4)c23)=C1O [3H, 2,5-dihydroxy-3-(4-benzyloxy-1H-indol-3-yl)-[1,4]-benzoquinone]	–	–	–
6 µM	–	9%	51%	28%	Cc1cccc2[nH]cc(C3=C(O)C(=O)C=C(O)C3=O)c12 [4A, 2,5-dihydroxy-3-(4-methyl-1H-indol-3-yl)-[1,4]-benzoquinone]	–	–	–
11.7 µM	–	32%	64%	23%	O=C1C=C(O)C(=O)C(c2c[nH]c3ccc(F)cc23)=C1O [4B, 2,5-dihydroxy-3-(5-fluoro-1H-indol-3-yl)-[1,4]-benzoquinone]	–	–	–
2.3 µM	–	32%	95%	45%	O=C1C=C(O)C(=O)C(c2c[nH]c3ccc(Cl)cc23)=C1O [4C, 2,5-dihydroxy-3-(5-chloro-1H-indol-3-yl)-[1,4]-benzoquinone]	–	–	–
2.4 µM	–	55%	96%	26%	O=C1C=C(O)C(=O)C(c2c[nH]c3ccc(Br)cc23)=C1O [4D, 2,5-dihydroxy-3-(5-bromo-1H-indol-3-yl)-[1,4]-benzoquinone]	–	–	–
6 µM	–	0%	15%	0%	COc1ccc2[nH]cc(C3=C(O)C(=O)C=C(O)C3=O)c2c1 [4F, 2,5-dihydroxy-3-(5-methoxy-1H-indol-3-yl)-[1,4]-benzoquinone]	–	–	–
1.8 µM	–	50%	96%	26%	O=C1C=C(O)C(=O)C(c2c[nH]c3ccc(OCc4ccccc4)cc23)=C1O [4G, 2,5-dihydroxy-3-(5-benzyloxy-1H-indol-3-yl)-[1,4]-benzoquinone]	–	–	–
2.5 µM	–	61%	94%	55%	Cc1ccc2[nH]cc(C3=C(O)C(=O)C=C(O)C3=O)c2c1 [4H, 2,5-dihydroxy-3-(5-methyl-1H-indol-3-yl)-[1,4]-benzoquinone]	–	–	–

The next lines start with the compound.

SMILES	IC50 (Cdc25B; [1])	IC50 (Cdc25B; [2])	inhibition at 50 µM (Cdc25B)	inhibition at 50 µM (Cdc25A)	inhibition at 50 µM (Cdc25C)	Percent Inhibition at 50 uM compound, Cdc25 B (Cdc25B; 50 uM compound)	Percent Inhibition at 50 uM compound, Cdc25 A (Cdc25A; 50 uM compound)	Percent Inhibition at 50 uM compound, Cdc25 C (Cdc25C; 50 uM compound)
O=C1C=C(O)C(=O)C(c2c[nH]c3ccccc23)=C1O [2A, 2,5-dihydroxy-3(1H-indol-3-yl)-[1,4]-benzoquinone]	14.2 µM	16.5 µM	75%	55%	69%	–	–	–
Cn1cc(C2=C(O)C(=O)C=C(O)C2=O)c2ccccc21 [2B, 2,5-dihydroxy-3-(1-methyl-1H-indol-3-yl)-[1,4]-benzoquinone]	185 µM	–	42%	63%	19%	–	–	–
Cc1[nH]c2ccccc2c1C1=C(O)C(=O)C=C(O)C1=O [2C, 2,5-dihydroxy-3-(2-methyl-1H-indol-3-yl)-[1,4]-benzoquinone]	138 µM	–	9%	35%	5%	–	–	–
CCc1[nH]c2ccccc2c1C1=C(O)C(=O)C=C(O)C1=O [2D, 2,5-dihydroxy-3-(2-ethyl-1H-indol-3-yl)-[1,4]-benzoquinone]	33.4 µM	–	36%	51%	14%	–	–	–
O=C1C=C(O)C(=O)C(c2c(C3CC3)[nH]c3ccccc23)=C1O [2E, 2,5-dihydroxy-3-(2-cyclopropyl-1H-indol-3-yl)-[1,4]-benzoquinone]	2.3 µM	24.4 µM	32%	79%	0%	–	–	–
CC(C)c1[nH]c2ccccc2c1C1=C(O)C(=O)C=C(O)C1=O [2F, 2,5-dihydroxy-3-(2-isopropyl-1H-indol-3-yl)-[1,4]-benzoquinone]	8.3 µM	–	13%	58%	0%	–	–	–
CC1(c2[nH]c3ccccc3c2C2=C(O)C(=O)C=C(O)C2=O)CC1 [2G, 2,5-dihydroxy-3-[2-(1-methylcycloproyl)-1H-indol-3-yl]-[1,4]-benzoquinone]	3.6 µM	–	17%	49%	0%	–	–	–
CC(C)(C)c1[nH]c2ccccc2c1C1=C(O)C(=O)C=C(O)C1=O [2H, 2,5-dihydroxy-3-(2-tert-butyl-1H-indol-3-yl)-[1,4]-benzoquinone]	13.9 µM	–	11%	31%	0%	–	–	–
Cc1cccc2c(C3=C(O)C(=O)c4cccc(O)c4C3=O)c[nH]c12 [4E, 2,5-dihydoxy-3-(7-methyl-1H-indol-3-yl)-[1,4]naphthoquinone]	69.3 µM	–	–	–	–	0%	10%	0%
